The results in this text go back to patent US5976797A, “Method for quantifying total mRNA with poly(A)-complementary oligonucleotide-immobilized microtiter plate” (Hitachi Chemical Co., Ltd., priority 1996, dated 1999).

The test system of one assay is U937 cells. The assay can be described thus: quantification of cytosolic mRNA after PMA-induced differentiation, U937 cells. Format: cell-based, human. The text has this:
(§1) We obtained from the respective suppliers human Jurkat, Molt-4, U937, and HL-60 cells (American Type Culture Collection, Rockville, Md.); MICROFAST TRACK™ 228 Kit (mRNA purification kit using oligo-(dT) cellulose, (Invitrogen, San Diego, Calif.); cell culture media, fetal calf serum, (FCS: fatal calf serum), phosphate-buffered saline (PBS: phosphate-buffered saline), rabbit globin mRNA, and vanadyl-ribonucleosidecomplex (VRC: vanadyl-ribonucleoside complex; Gibco-BRL, Baithersburg, Md.); Isolymph (Gallard-Schlesinger, Carle Place, N.Y.); calf thymus DNA (Clontech, Palo Alto, Calif.); DNase (Boehringer Mannheim, Indianapolis, Ind.); RNase (Stratagene, La Jolla, Calif.); and GENEPLATE™ (oligonucleotide-immobilized microplate,(Hitachi Chemical Research Center, Irvine Calif. and Hitachi Chemical Co., Ibaraki, Japan). All other chemicals were purchased from Sigma Chemical Co. (St. Louis, Mis.). Oligonucleotides were synthesized by a synthesizer (Applied Biosystems, San Jose, Calif.), according to the manufacturer's protocol.
(§2) Human Jurkat and Molt-4 cells were grown in RPMI 1640 containing 100 U/mL penicillin, 100 μg/mL streptomycin, and 100 mL/L FCS at 37° C. in CO2 :air, 5:95 (by vol). […] Each cell line was subcultured two to three times a week, and viability was always >90%, as assessed by the exclusion of trypan blue. The number of cells was determined with a hemocytometer. […]

Another assay has as its system HL-60 cells. Briefly: quantification of cytosolic mRNA after PMA-induced differentiation, HL-60 cells. Format: cell-based, human.
Excerpt: as §1, §2

[1] abbreviates: 48 h after PMA treatment (160 nmol/L), n=8, P<0.01.
Where [2] appears, read: phorbol ester-induced differentiated.

For the compound `CCCCCCCCCCCCCC(=O)O[C@@H]1[C@@H](C)[C@@]2(O)[C@@H](C=C(CO)C[C@]3(O)C(=O)C(C)=C[C@@H]23)[C@@H]2C(C)(C)[C@]12OC(C)=O` [PMA, phorbol 12-myristate 13-acetate], in the assay with U937 cells (setting [1]), the “mRNA content in 10^6 differentiated U937 cells” value came to 145.3±13.9 μg/mL. Further, the “amount of cytosolic mRNA in differentiated U937 cells” value in the assay on U937 cells (setting [2]) is given as 145.3±13.9 ng/10^6 cells. For the same compound, the “mRNA content in 10^6 differentiated HL-60 cells” value in the assay on HL-60 cells (setting [1]) is recorded as 164.7±11.6 μg/mL. Moreover, in the assay on HL-60 cells (setting [2]), the “amount of cytosolic mRNA in differentiated HL-60 cells” value amounted to 164.7±11.6 ng/10^6 cells.
